What follows are compounds tested against catalytic domain 2 (CD2) of HDAC6 (Homo sapiens (Human), UniProt Q9UBN7) (assay: Cellular target engagement assay - NanoBRET). Conditions: NanoLuc-HDAC6(CD2) in HEK293T cells, 2 hours, read-out: IC50 (HDAC6(CD2) interaction).
Format: cell-based
Description: NanoBRET target engagement was performed against the catalytic domain 2 (CD2) of HDAC6, with minor modifications of kit manufacturer protocol (Promega). Expression of exogenous NanoLuc-HDAC6(CD2) fusion and in HEK293T was achieved following transient transfection with FuGENE HD Transfection Reagent (Promega). The intracellular target engagement assay on HDAC6(CD2) was performed in a 384-well plate format with 8,000 cells per well and a tracer concentration of 0.125 μM or 0.600 μM for HDAC6(CD2). Compounds (dissolved in 100% DMSO) or DMSO (vehicle) were added either manually by diluting them in culture medium at 8× final assay concentration and then adding 5 μL to assay plate or in an automated way by adding […] compound to 5 μL OptiMEM without phenol red (Gibco) using the Echo650 (Labcyte). Tracer solution was added to the cells before seeding 35 μL cell/tracer mixture in the assay plate. The final reaction volume was 40 μL, final DMSO concentration was 1.4% (manual compound addition) or 1.25% (automated compound addition). Assay plates were incubated at 37° C. in a humidified atmosphere containing 5% C02 for 2 hours. The NanoBRET Nano-glo Substrate/Inhibitor was prepared by diluting NanoBRET Nano-Glo Substrate (1:332) and Extracellular Inhibitor (1:1000) in assay medium (Promega). […] BRET ratios were calculated from acceptor/donor signal ratio (mBRET=acceptor/donor*1000) and normalized for each plate. Percentage inhibition was calculated by setting the mBRET obtained with cells without tracer to 100%, while the mBRET obtained with uninhibited cells with tracer was set to 0%. IC50-values were calculated from the percentage inhibition with the log(inhibitor) vs. response—Variable slope (four parameters) nonlinear regression in GraphPad Prism software.

Chain of catalytic domain 2 (CD2) of HDAC6 (Q9UBN7 482-800): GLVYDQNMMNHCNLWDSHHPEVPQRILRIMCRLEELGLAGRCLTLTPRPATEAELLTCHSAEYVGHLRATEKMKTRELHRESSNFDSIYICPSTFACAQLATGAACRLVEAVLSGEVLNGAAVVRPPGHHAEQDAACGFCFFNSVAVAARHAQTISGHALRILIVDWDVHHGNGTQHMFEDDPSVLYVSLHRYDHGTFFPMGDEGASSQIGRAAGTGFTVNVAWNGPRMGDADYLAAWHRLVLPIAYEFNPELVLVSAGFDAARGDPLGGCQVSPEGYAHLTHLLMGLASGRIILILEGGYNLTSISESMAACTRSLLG

First: CC(=O)NCCc1ccc(C(=O)CSc2nc3nc(C)ccc3o2)s1 [Compound 104, N-(2-(5-(2-((5-methyloxazolo[4,5-b]pyridin-2-yl)thio)acetyl)thiophen-2-yl)ethyl)acetamide]
Second: O=C(CO)NCc1ccc(C(=O)CSc2nc3cc(C(F)(F)F)ccc3o2)s1 [Compound 105, 2-hydroxy-N-((5-(2-((5-(trifluoromethyl)benzo[d]oxazol-2-yl)thio)acetyl)thiophen-2-yl)methyl)acetamide]
The IC50 of the first is lower: 100 to 500 nM for the first, 1000 to 10000 nM for the second.

`Cc1nc(SCC(=O)c2ccc(CNC(=O)CO)s2)c2cc(C3CC3)ccc2n1` [Compound 106, N-((5-(2-((6-cyclopropyl-2-methylquinazolin-4-yl)thio)acetyl)thiophen-2-yl)methyl)-2-hydroxyacetamide] and `CCOc1ccc2nc(C)nc(SCC(=O)c3ccc(CNC(=O)CO)s3)c2c1` [Compound 144, N-((5-(2-((6-ethoxy-2-methylquinazolin-4-yl)thio)acetyl)thiophen-2-yl)methyl)-2-hydroxyacetamide] cannot be ordered by IC50: at most 100 nM for the first, at most 100 nM for the second.

`Cc1cc2nc(C(F)(F)F)nc(SCC(=O)c3ccc(CNC(=O)CO)s3)n2n1` [Compound 107, 2-hydroxy-N-((5-(2-((7-methyl-2-(trifluoromethyl)pyrazolo[1,5-a][1,3,5]triazin-4-yl)thio)acetyl)thiophen-2-yl)methyl)acetamide] and `O=C(CO)NCc1ccc(C(=O)CSc2nc(C(F)(F)F)nc3cc(C4CC4)nn23)s1` [Compound 112, N-((5-(2-((7-cyclopropyl-2-(trifluoromethyl)pyrazolo[1,5-a][1,3,5]triazin-4-yl)thio)acetyl)thiophen-2-yl)methyl)-2-hydroxyacetamide] cannot be ordered by IC50: 100 to 500 nM for the first, at most 100 nM for the second.

`Cc1nc(SCC(=O)c2ccc(CNC(=O)C3CC3(F)F)s2)c2cccnc2n1` (stereo not drawn) [Compound 110, 2,2-difluoro-N-((5-(2-((2-methylpyrido[2,3-d]pyrimidin-4-yl)thio)acetyl)thiophen-2-yl)methyl)cyclopropane-1-carboxamide] and `Cc1nc(SCC(=O)c2ccc(CNC(=O)C3CC3(F)F)s2)c2cc(OC(F)(F)F)ccc2n1` (stereo not drawn) [Compound 120, 2,2-difluoro-N-((5-(2-((2-methyl-6-(trifluoromethoxy)quinazolin-4-yl)thio)acetyl)thiophen-2-yl)methyl)cyclopropane-1-carboxamide] fall in the same range of IC50: 100 to 500 nM for the first, 100 to 500 nM for the second.

`Cn1cc2c(SCC(=O)c3ccc(CNC(=O)C4CC4(F)F)s3)nc(C(F)(F)F)nc2n1` (stereo not drawn) [Compound 111, 2,2-difluoro-N-((5-(2-((2-methyl-6-(trifluoromethyl)-2H-pyrazolo[3,4-d]pyrimidin-4-yl)thio)acetyl)thiophen-2-yl)methyl)cyclopropane-1-carboxamide] and `CCn1ncc2c(SCC(=O)c3ccc(CNC(=O)CO)s3)nc(C(F)(F)F)nc21` [Compound 136, N-((5-(2-((1-ethyl-6-(trifluoromethyl)-1H-pyrazolo[3,4-d]pyrimidin-4-yl)thio)acetyl)thiophen-2-yl)methyl)-2-hydroxyacetamide] cannot be ordered by IC50: 100 to 500 nM for the first, at most 100 nM for the second.

`COc1cc2c(SCC(=O)c3ccc(CNC(=O)CO)s3)nc(C)nc2cn1` [Compound 121, 2-hydroxy-N-((5-(2-((6-methoxy-2-methylpyrido[3,4-d]pyrimidin-4-yl)thio)acetyl)thiophen-2-yl)methyl)acetamide] and `CCOc1cc2c(SCC(=O)c3ccc(CNC(=O)CO)s3)nc(C)nc2cn1` [Compound 145, N-((5-(2-((6-ethoxy-2-methylpyrido[3,4-d]pyrimidin-4-yl)thio)acetyl)thiophen-2-yl)methyl)-2-hydroxyacetamide] cannot be ordered by IC50: at most 100 nM for the first, at most 100 nM for the second.

`O=C(CSc1nc(C(F)(F)F)nc2ncccc12)c1ccc(CNS(=O)(=O)C2CC2)s1` [Compound 122, N-((5-(2-((2-(trifluoromethyl)pyrido[2,3-d]pyrimidin-4-yl)thio)acetyl)thiophen-2-yl)methyl)cyclopropanesulfonamide] and `CCS(=O)(=O)NCc1ccc(C(=O)CSc2nc(C(F)(F)F)nc3ncccc23)s1` [Compound 127, N-((5-(2-((2-(trifluoromethyl)pyrido[2,3-d]pyrimidin-4-yl)thio)acetyl)thiophen-2-yl)methyl)ethanesulfonamide] cannot be ordered by IC50: at most 100 nM for the first, at most 100 nM for the second.

`O=C(CSc1nc(C(F)(F)F)nc2ncccc12)c1ccc(CNS(=O)(=O)CC(F)(F)F)s1` [Compound 123, 2,2,2-trifluoro-N-((5-(2-((2-(trifluoromethyl)pyrido[2,3-d]pyrimidin-4-yl)thio)acetyl)thiophen-2-yl)methyl)ethane-1-sulfonamide] and `CN(Cc1ccc(C(=O)CSc2nc(C(F)(F)F)nc3ncccc23)s1)C(=O)CO` [Compound 131, 2-hydroxy-N-methyl-N-((5-(2-((2-(trifluoromethyl)pyrido[2,3-d]pyrimidin-4-yl)thio)acetyl)thiophen-2-yl)methyl)acetamide] cannot be ordered by IC50: at most 100 nM for the first, at most 100 nM for the second.

`COc1ccc2nc(C(F)(F)F)nc(SCC(=O)c3ccc(CNC(=O)C(C)(C)O)s3)c2c1` [Compound 134, 2-hydroxy-N-((5-(2-((6-methoxy-2-(trifluoromethyl)quinazolin-4-yl)thio)acetyl)thiophen-2-yl)methyl)-2-methylpropanamide] and `COc1ccc2nc(C)nc(SCC(=O)c3ccc(CNC(=O)C(F)F)s3)c2c1` [Compound 172, 2,2-difluoro-N-((5-(2-((6-methoxy-2-methylquinazolin-4-yl)thio)acetyl)thiophen-2-yl)methyl)acetamide] fall in the same range of IC50: 100 to 500 nM for the first, 100 to 500 nM for the second.

`COc1ccc2nc(C(F)F)nc(SCC(=O)c3ccc(CNC(=O)CO)s3)c2c1` [Compound 139, N-((5-(2-((2-(difluoromethyl)-6-methoxyquinazolin-4-yl)thio)acetyl)thiophen-2-yl)methyl)-2-hydroxyacetamide] and `COc1ccc2nc(C)nc(SCC(=O)c3ccc(CNC(=O)CN)s3)c2c1` [Compound 177, 2-amino-N-((5-(2-((6-methoxy-2-methylquinazolin-4-yl)thio)acetyl)thiophen-2-yl)methyl)acetamide] fall in the same range of IC50: 100 to 500 nM for the first, 100 to 500 nM for the second.

`COc1cccc2nc(C)nc(SCC(=O)c3ccc(CNC(=O)CO)s3)c12` [Compound 143, 2-hydroxy-N-((5-(2-((5-methoxy-2-methylquinazolin-4-yl)thio)acetyl)thiophen-2-yl)methyl)acetamide] and `Cc1nc(SCC(=O)c2ccc(CNC(=O)CO)s2)c2c(F)c(Cl)ccc2n1` [Compound 146, N-((5-(2-((6-chloro-5-fluoro-2-methylquinazolin-4-yl)thio)acetyl)thiophen-2-yl)methyl)-2-hydroxyacetamide] cannot be ordered by IC50: 100 to 500 nM for the first, at most 100 nM for the second.

`Cc1nc(SCC(=O)c2ccc(CNC(=O)CO)s2)c2cc(N(C)C)ncc2n1` [Compound 149, N-((5-(2-((6-(dimethylamino)-2-methylpyrido[3,4-d]pyrimidin-4-yl)thio)acetyl)thiophen-2-yl)methyl)-2-hydroxyacetamide] and `Cc1nc(SCC(=O)c2ccc(CNC(=O)CO)s2)c2cc(C(F)(F)F)cc(N(C)C)c2n1` [Compound 150, N-((5-(2-((8-(dimethylamino)-2-methyl-6-(trifluoromethyl)quinazolin-4-yl)thio)acetyl)thiophen-2-yl)methyl)-2-hydroxyacetamide] cannot be ordered by IC50: at most 100 nM for the first, at most 100 nM for the second.

`CNc1cc(C(F)(F)F)cc2c(SCC(=O)c3ccc(CNC(=O)CO)s3)nc(C)nc12` [Compound 151, 2-hydroxy-N-((5-(2-((2-methyl-8-(methylamino)-6-(trifluoromethyl)quinazolin-4-yl)thio)acetyl)thiophen-2-yl)methyl)acetamide] and `CNCC(=O)NCc1ccc(C(=O)CSc2nc(C)nc3ccc(OC)cc23)s1` [Compound 183, N-((5-(2-((6-methoxy-2-methylquinazolin-4-yl)thio)acetyl)thiophen-2-yl)methyl)-2-(methylamino)acetamide] fall in the same range of IC50: 100 to 500 nM for the first, 100 to 500 nM for the second.

`COc1cnc2nc(C)nc(SCC(=O)c3ccc(CN(C)C(=O)CO)s3)c2c1` [Compound 162, 2-hydroxy-N-((5-(2-((6-methoxy-2-methylpyrido[2,3-d]pyrimidin-4-yl)thio)acetyl)thiophen-2-yl)methyl)-N-methylacetamide] and `COc1ccc2nc(C)nc(SCC(=O)c3ccc(CNC(=O)C4CN(C)C4)s3)c2c1` [Compound 178, N-((5-(2-((6-methoxy-2-methylquinazolin-4-yl)thio)acetyl)thiophen-2-yl)methyl)-1-methylazetidine-3-carboxamide] cannot be ordered by IC50: 100 to 500 nM for the first, at most 100 nM for the second.

`COc1ccc2nc(C)nc(SCC(=O)c3ccc(CNC(=O)C4CCCO4)s3)c2c1` (stereo not drawn) [Compound 171, N-((5-(2-((6-methoxy-2-methylquinazolin-4-yl)thio)acetyl)thiophen-2-yl)methyl)tetrahydrofuran-2-carboxamide] and `COc1ccc2nc(C)nc(SCC(=O)c3ccc(CNC(=O)C4CCCN4)s3)c2c1` (stereo not drawn) [Compound 184, N-((5-(2-((6-methoxy-2-methylquinazolin-4-yl)thio)acetyl)thiophen-2-yl)methyl)pyrrolidine-2-carboxamide] fall in the same range of IC50: 100 to 500 nM for the first, 100 to 500 nM for the second.

Source: US20250051319A1 (AUGUSTINE THERAPEUTICS, priority 2021, published 2025)
